Results taken from patent US20070218004A1, “Method of Identifying Therapeutic Compounds Which Can Be Used for the Treatment and/or Prevention of Infections and Diseases Caused by Human Herpesviruses” (priority 2005, published 2007).
Like-named read-outs stand apart in the source and are kept apart here.

Assays:
[1] = system: herpes simplex virus type 1 (HSV-1) of the KOS strain; type: in vivo, mice of the C57B1/6 lineage
Description: All the animals included in the experimental process were 14-week old female mice of the C57B1/6 lineage. Between two and three adult mice were used per analysis group and between 13 and 25 neonates, depending on the availability of animals. […] All the animals went through a quarantine period and were treated with strict precautions against contamination during inoculation and dissection. The animals were intraperitoneally infected with a dose 10^6 pfu of herpes simplex virus type 1 (HSV-1) of the KOS strain (provided by el Dr. L. Carrasco, Centro de Biología Molecular Severo Ochoa, Universidad Autónoma of Madrid). […] The first group of mice was not given any treatment. […] Therefore the antiviral concentration administered per dose and mouse was 0.25 mg (10 mg/kg per mouse, far from the toxicity limit of 80 mg/kg cited above), with a total daily dose of 0.75 mg/day.
The dissected organs in the adult animals were the following: blood, ovaries, adrenal gland, spinal cord, brain, cerebellum and trigeminal ganglia. The entire brain was separated into three rough regions: midbrain, ventricles and cerebral cortex. In the neonates, the dissected organs were blood, spinal cord and encephalon. DNA was extracted using conventional methods (NucleoSpin®, Cat. K3053-2, ClonTech, USA). The viral load of the different organs was analyzed by means of quantitative PCR. […] Primers specific for the sequence of the viral polymerase (pol) gene were used to detect the virus (SEQ. ID. NO: 3 and SEQ. ID. NO: 4) (120 bp amplicon). The PCR conditions were one cycle of 95° C. for 10 minutes, followed by 45 cycles at 95° C. for 30 seconds, 55° C. (for β-actin) or 60° C. (for viral polymerase) for 30 seconds, and a last cycle of 72° C. for 40 seconds. The virus concentration range used for optimizing the quantitative PCR standard curve was expressed as plaque forming units (pfu). For calibrating the β-actin gene, nanograms were used as the unit of this endogenous gene. The identity of the amplified products was checked by analysis of the denaturation curves, by gel electrophoresis and restriction analysis.

HSV-1 = test: Acyclovir ad libitum in drink, vertical mother-progeny transmission model (Example 3); type: in vivo, mice; conditions: acyclovir in drinking water ad libitum, high dose (final daily dose 1.50 mg), from the day of the vaginal plug
Description: Assuming that a mouse drinks about 3 ml a day, 2 working dilutions ([…] so that the final daily dose was 0.75 mg, and […] so that the final daily dose was 1.50 mg) were used.

[2] = rabbits; cited from earlier work
[3] = rats; cited from earlier work
[4] = mice; cited from earlier work

With `Nc1nc2c(ncn2COCCO)c(=O)[nH]1` [acyclovir] the “viral loads both in the mothers and in the progeny (quantitative PCR)” value ([1]; daily dose of 0.75 mg, both administration routes (oral and subcutaneous), FIG. 7) was “significant reduction”, the “viral levels in all the analyzed organs of the descendants” value ([1]; oral acyclovir administered to the mothers, 0.75 mg/day) was “almost complete elimination” and the mortality of neonates ([1]; oral acyclovir to infected mothers, 0.25 mg per dose three times a day (0.75 mg/day), none of the 17 animals) was “no mortality”. For the same compound, the “virus levels in blood and in the trigeminal ganglia of the mothers” value ([1]; oral acyclovir, 0.75 mg/day) was “virtually undetectable”, the “mortality rate of neonates” value ([1]; subcutaneous acyclovir to infected mothers, 0.25 mg per dose three times a day (0.75 mg/day), from five days before crossbreeding until birth, 1 out of 25) was 4.0% and the “levels of the virus in all the analyzed organs of the mother and in the progeny's CNS” value ([1]; subcutaneous acyclovir, 0.75 mg/day) was “considerably lower levels”. The “survival of the animals” value (HSV-1) was “higher”, the teratogenicity / embryotoxicity [2] was “non-teratogenic or embryotoxic” and the teratogenicity / embryotoxicity [3] was “non-teratogenic or embryotoxic”. The teratogenicity / embryotoxicity [4] was “non-teratogenic or embryotoxic”.
